In patent US20260315434A1, “USE OF GUAIACOL SESQUITERPENE LACTONE DERIVATIVES” (NANJING UNIVERSITY OF CHINESE MEDICINE, priority 2023, published 2026):
Converted amounts (≈) assume the structure as drawn.

Key:
tumor cells = settings: in vitro cell models, result in words; cited from earlier work
[1] = system: Hepa1-6 transplanted tumor; settings: 30 mg/kg i.p., 14 consecutive days; cited from earlier work
T cells / MDSCs = test: Promotion of T cell proliferation in a co-culture model of MDSCs and T cells; type: cell-based, mouse; settings: for activation at 1 µM: Mus musculus, T-cell, 12 h, read-out: T-cell proliferation rate (%), 1 μM, MDSCs treated 12 hours, co-culture of MDSCs and T cells, compared to the control group
Summary of the method: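 Bone-marrow MDSCs, after compound treatment, were co-cultured 48 h at 1:1 with CFDA-SE-labelled (10 μM solution), activated splenic T cells. Proliferation of CD3+ T cells was read by flow cytometry.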

[2] = system: HepG2 and Huh7 HCC cell transplanted tumor; settings: HepG2 and Huh7 transplanted tumor models; cited from earlier work
[3] = system: mouse ear atopic dermatitis; test: MC903-induced atopic dermatitis of the ear, ointment: ear thickness, dermatitis score, lesions; type: in vivo; settings: for inhibition rate of ear thickness increase: final day
Protocol: (1) Preparation of Oil Phase: Weigh white petrolatum, light liquid paraffin, glyceryl monostearate, ethylparaben, and cetyl alcohol. Heat to 65° C. while stirring until dissolved. Slowly add the dissolved active pharmaceutical ingredient (API) while continuing to stir until uniformly mixed. Set aside.
(2) Aqueous Phase Preparation: Weigh purified water and Tween 80, heat to 70° C., stir to dissolve, and set aside;
(3) Emulsification: Slowly add the aqueous phase to the oil phase while maintaining 65° C., homogenize, and continue stirring for 30 min;
(4) Cooling: Stop heating, continue stirring, gradually reduce to room temperature, cool to form an ointment, and fill containers.
(§1) Dissolve these substances in a small amount of propylene glycol, then place the resulting solution into the aforementioned pre-cooled blank ointment base. Finally, add water to make the total mass up to 10 g, and grind the mixture thoroughly in a mortar.
(§2) Except for the Normal group, all other groups underwent AD modeling: 20 μL of MC903 solution (also known as calcipotriol, purchased from Shanghai Yuanye Biotechnology Co., Ltd., used for inducing atopic models) was applied to each mouse's ears once daily for 14 consecutive days to induce the atopic dermatitis model. […] Measure ear thickness changes every 2 days using an electronic caliper before modeling and after treatment initiation.
(§3) Skin Lesion Severity Score: Daily skin lesion severity was assessed in mice using the following criteria, primarily encompassing four symptoms: 1) erythema/hemorrhage; 2) dryness; 3) desquamation/erosion; 4) edema. Each symptom was scored from 0 to 3 based on lesion severity: no symptoms=0 points, mild=1 point, moderate=2 points, severe=3 points. […] Higher scores indicated more severe lesions, with a maximum score of 12. Statistical analysis was performed on the data.

dorsal atopic dermatitis = test: MC903-induced atopic dermatitis of the dorsum, ointment: skin thickness, dermatitis score, lesions; type: in vivo, mouse; settings: for inhibition rate of dorsal skin thickness increase: final day
Protocol: as §1
Except for the Normal group, all other groups underwent AD modeling: 48 hours prior to the experiment, hair on the dorsal neck region was meticulously removed using clippers and depilatory cream. Following modeling initiation, 20 μL of MC903 solution was applied once daily to the dorsal neck region for 14 consecutive days to induce the AD model. […] Model and control group mice received daily application of blank ointment. Twenty-four hours after completing the 14-day modeling period, photographs of skin lesions were taken, and skin lesion and blood samples were collected.
as §3

MDSCs = test: Inhibition of MDSC chemotaxis (Transwell, tumor-conditioned medium); type: cell-based, mouse; set-up: inhibition of MDSC chemotaxis compared to Arg: dose or concentration left out as unconfirmed
Protocol: Hepa1-6 mouse hepatocellular carcinoma cells were uniformly seeded into 6-well plates. After cells reached confluence, supernatant was aspirated, and 1-1.5 mL fresh medium was added to each well. Following 24 h culture, supernatant was collected, centrifuged at 1600 rpm for 5 min, aspirated, and filtered through a 0.22 μm membrane to obtain tumor-conditioned medium for subsequent use. […] Under sterile conditions, remove the tibia, cut both ends of the bone, and aspirate the bone marrow into a 1 mL syringe. Repeat flushing into a 15 mL centrifuge tube. Centrifuge at 1600 rpm for 5 min to collect bone marrow cells. Wash twice with 1×PBS. […] Count cells, adjust density to 1×10^6 cells/mL, and uniformly seed into 24-well plates at 300 μL per well. […] Centrifuge at 1600 rpm for 5 min, remove supernatant, resuspend cells in 300 μL fresh medium, and place into Transwell chambers. […] Co-culture for 24 h.

[4] = system: inflammatory markers in the ears of AD mice; test: MC903-induced atopic dermatitis of the ear, ointment: mRNA of inflammatory markers; type: in vivo, mouse
Protocol: as §1, §2

CCR2 mRNA = test: Inhibition of CCR2 mRNA level in MDSCs; type: cell-based; settings: Mus musculus, 2 h, read-out: Suppression Rate (inhibition of CCR2 mRNA levels)
Protocol: Under sterile conditions, the tibia was removed, both ends of the bone were cut, and bone marrow was repeatedly flushed into a 15 mL centrifuge tube using a 1 mL syringe filled with culture medium. Centrifuge at 1600 rpm for 5 min to collect bone marrow cells. […] Count cells and adjust density to 1×10^6 cells/mL in complete medium. Seed cells uniformly into 6-well plates at 2 mL per well. […] After incubation, collect cells into centrifuge tubes, centrifuge at 1600 rpm for 5 min, wash once with 1×PBS, and add 500 μL RNA extraction reagent to each tube. After centrifugation to obtain the pellet, add 20 μL DEPC-treated water to each tube to dissolve the pellet. Determine RNA concentration and reverse transcribe to cDNA. Add the cDNA, primers, and […] to a 96-well plate. Centrifuge at 4000 rpm for 5 min, then place in a PCR instrument for detection.

[5] = Water solubility testing of compounds (HPLC); settings: deionized water, water, Water-solubility, 37 °C
[6] = Mus musculus, read-out: Suppression Rate (MDSC chemotaxis)

**Q.** With C=C1C(=O)O[C@H]2[C@H]1CCC(C)=C1CC[C@@](C)(O)[C@@H]12 [MCL, Micheliolide] as the compound, how does the “IC50, tumor cell growth inhibition” value (tumor cells) read?
**A.** in the micromolar range

**Q.** What about the “tumor weight inhibition rate” value [1] of the same compound?
**A.** 50%

**Q.** And the activation at 1 µM (T cells / MDSCs)?
**A.** 20 to 40%

**Q.** What about the “effective dose, intraperitoneal” value [2] of the same compound?
**A.** 25 mg/kg

**Q.** Which “Dermatitis Score, ear” value ([3]; 0.01% ointment, 7 days, max score 12) does the source give for C=C1C(=O)O[C@@H]2[C@@H]3[C@]4(CC[C@@]3(C)O)C[C@]4(C)CC[C@@H]12 [Compound 1] here?
**A.** 3.50 ± 0.22

**Q.** What about the “AD-like skin lesions on the ears” value ([3]; 0.01%, 0.1%, 1% ointment) of the same compound?
**A.** significantly alleviated

**Q.** And the “inhibition rate of ear thickness increase” value ([3]; 0.01% ointment)?
**A.** 71%

**Q.** And the “inhibition rate of ear thickness increase” value ([3]; 0.1% ointment)?
**A.** 71%

**Q.** What about the “inhibition rate of ear thickness increase” value ([3]; 1% ointment) of the same compound?
**A.** 80%

**Q.** And the “AD-like skin lesions on the backs” value (dorsal atopic dermatitis; 0.01%, 0.1%, 1% ointment)?
**A.** significantly alleviated

**Q.** And the “Dermatitis Score, back” value (dorsal atopic dermatitis; 0.1% ointment, 7 days, max score 12)?
**A.** 2.50 ± 0.22

**Q.** And the “inhibition rate of dorsal skin thickness increase” value (dorsal atopic dermatitis; 0.01% ointment)?
**A.** 66%

**Q.** And the “inhibition rate of dorsal skin thickness increase” value (dorsal atopic dermatitis; 0.1% ointment)?
**A.** 72%

**Q.** And the “inhibition rate of dorsal skin thickness increase” value (dorsal atopic dermatitis; 1% ointment)?
**A.** 83%

**Q.** And the inhibition at 1 µM (MDSCs; [6])?
**A.** 42.3%

**Q.** And the inhibition at 10 µM (MDSCs; [6])?
**A.** 83.3%

**Q.** What about the “inhibition of MDSC chemotaxis compared to Arg” value (MDSCs; result in words) of the same compound?
**A.** superior inhibition rates

**Q.** What about the “I113 mRNA expression, ear” value ([4]; 0.01% ointment) of the same compound?
**A.** 3.30 ± 0.47

**Q.** What about the “I131 mRNA expression, ear” value ([4]; 0.1% ointment) of the same compound?
**A.** 1.64 ± 0.25

**Q.** What about the “I131 mRNA expression, ear” value ([4]; 1% ointment) of the same compound?
**A.** 1.10 ± 0.19

**Q.** What about the inhibition at 1 µM (CCR2 mRNA) of the same compound?
**A.** 35.2%

**Q.** What about the inhibition at 10 µM (CCR2 mRNA) of the same compound?
**A.** 76.5%

**Q.** What about the solubility [5] of the same compound?
**A.** 1140 µg/mL (≈ 4.35 mM)

**Q.** And the “T cell proliferation in MDSC-T cell co-culture” value (T cells / MDSCs; 1 μM, result in words)?
**A.** significantly enhanced T-cell proliferation

**Q.** What about the activation at 1 µM (T cells / MDSCs) of the same compound?
**A.** > 40%
